Activity calls are given as the source filed them. The calls are words filed in the database; no cut-off is given here.
Legend:
[1] = biological target: ELAV-like protein 1 (Homo sapiens) (UniProt Q15717); assay: Binding affinity to HuR (unknown origin) assessed as negative STD factor by measuring interaction of protons 3, 9-10 and 16 with protein at 400 uM in 100% D2O buffer by DEEP-STD NMR analysis
[2] = biological target: ELAV-like protein 1 (Homo sapiens) (UniProt Q15717); assay: Binding affinity to HuR (unknown origin) assessed as interaction of ring A and protons 16 with hydrophobic residues and projection of ring B and its methoxy group with polar residues of protein at 400 uM in H2O:D2O (90:10) buffer by DEEP-STD NMR analysis
[3] = biological target: ELAV-like protein 1 (Homo sapiens) (UniProt Q15717); assay: Binding affinity to HuR (unknown origin) assessed as positive STD factor by measuring interaction of protons of ring B and its methoxy group with protein at 400 uM in 100% D2O buffer by DEEP-STD NMR analysis
[4] = biological target: ELAV-like protein 1 (Homo sapiens) (UniProt Q15717); assay: Binding affinity to HuR (unknown origin) assessed as interaction of ring A and protons 5 and 3 with apolar residues and projection of protons 16 and 9-10 with polar residues of protein at 400 uM in H2O:D2O (90:10) buffer by DEEP-STD NMR analysis

ELAV-like protein 1 (Homo sapiens), sequence (Q15717 whole entry): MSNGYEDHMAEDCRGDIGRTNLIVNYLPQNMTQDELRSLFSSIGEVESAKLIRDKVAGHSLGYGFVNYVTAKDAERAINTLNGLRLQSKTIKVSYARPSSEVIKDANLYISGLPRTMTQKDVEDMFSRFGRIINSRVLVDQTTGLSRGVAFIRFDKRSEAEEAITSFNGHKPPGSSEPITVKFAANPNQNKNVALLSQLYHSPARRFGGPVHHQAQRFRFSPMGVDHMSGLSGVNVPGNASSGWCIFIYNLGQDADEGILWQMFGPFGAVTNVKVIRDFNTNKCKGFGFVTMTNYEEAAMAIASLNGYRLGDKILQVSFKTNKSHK

Compound | Activity [1] | Activity [2] | Activity [3] | Activity [4]
COc1cc(OC)cc([C@H]2[C@H](C(=O)NCCNCc3ccccc3)CCC(=O)N2CC(C)C)c1 | Active | Active | – | –
COc1cc(OC)cc([C@@H]2[C@@H](C(=O)NCCNCc3ccccc3)CCC(=O)N2CC(C)C)c1 | – | – | Active | Active
